From ChEMBL document CHEMBL1122946, “Folate antagonists. 21. Synthesis and antimalarial properties of 2,4-diamino-6-(benzylamino)pyrido[3,2-d]pyrimidines” (1985)

What was measured:
Mus musculus [1] = assay: Mean survival time against trophozoite induced Plasmodium berghei in mice minus control was evaluated at a dose 640 mg/kg; 5 toxic death occurred on days 2-5 after injection; format: functional, organism-based; parameters: dose 640 mg/kg
Mus musculus [2] = assay: Mean survival time against trophozoite induced Plasmodium berghei in mice minus control was evaluated at a dose 80 mg/kg; 2 survived occurred on days 2-5 after injection; format: functional, organism-based; parameters: dose 80 mg/kg
Mus musculus [3] = assay: Mean survival time against trophozoite induced Plasmodium berghei in mice minus control was evaluated at a dose 80 mg/kg; 2 survived occurred on days 2-5 after injection.; format: functional
Mus musculus [4] = assay: Mean survival time against trophozoite induced Plasmodium berghei in mice minus control was evaluated at a dose 160 mg/kg; 5 survived occurred on days 2-5 after injection; format: functional, organism-based; parameters: dose 160 mg/kg
Mus musculus [5] = assay: Mean survival time against trophozoite induced Plasmodium berghei in mice minus control was evaluated at a dose 10 mg/kg.; format: functional
Mus musculus [6] = assay: Mean survival time against trophozoite induced Plasmodium berghei in mice minus control was evaluated at a dose 40 mg/kg; 1 survived occurred on days 2-5 after injection; format: functional
Mus musculus [7] = assay: Mean survival time against trophozoite induced Plasmodium berghei in mice minus control was evaluated at a dose 20 mg/kg.; format: functional
Mus musculus [8] = assay: Mean survival time against trophozoite induced Plasmodium berghei in mice minus control was evaluated at a dose 320 mg/kg; 2 toxic death and 3 survived occurred on days 2-5 after injection; format: functional, organism-based; parameters: dose 320 mg/kg
Mus musculus [9] = assay: Mean survival time against trophozoite induced Plasmodium berghei in mice minus control was evaluated at a dose 5 mg/kg.; format: functional
Mus musculus [10] = assay: Mean survival time against trophozoite induced Plasmodium berghei in mice minus control was evaluated at a dose 640 mg/kg; 15 toxic death occurred out of 15 animals on days 2-5 after injection; format: functional, organism-based; parameters: dose 640 mg/kg
Mus musculus [11] = assay: Mean survival time against trophozoite induced Plasmodium berghei in mice minus control was evaluated at a dose 80 mg/kg; 5 survived out of 5 animals at 60 days postinjection.; format: functional, organism-based; parameters: dose 80 mg/kg
Mus musculus [12] = assay: Mean survival time against trophozoite induced Plasmodium berghei in mice minus control was evaluated at a dose 320 mg/kg; 10 toxic death occurred out of 10 animals on days 2-5 after injection; format: functional, organism-based; parameters: dose 320 mg/kg
Mus musculus [13] = assay: Mean survival time against trophozoite induced Plasmodium berghei in mice minus control was evaluated at a dose 40 mg/kg; format: functional
Mus musculus [14] = assay: Mean survival time against trophozoite induced Plasmodium berghei in mice minus control was evaluated at a dose 1.25 mg/kg.; format: functional
Mus musculus [15] = assay: Mean survival time against trophozoite induced Plasmodium berghei in mice minus control was evaluated at a dose 160 mg/kg; 14 toxic death occurred out of 20 animals on days 2-5 after injection; format: functional, organism-based; parameters: dose 160 mg/kg
Mus musculus [16] = assay: Mean survival time against trophozoite induced Plasmodium berghei in mice minus control was evaluated at a dose 2.5 mg/kg.; format: functional
Mus musculus [17] = assay: Mean survival time against trophozoite induced Plasmodium berghei in mice minus control was evaluated at a dose 20 mg/kg; format: functional
Mus musculus [18] = assay: Mean survival time against trophozoite induced Plasmodium berghei in mice minus control was evaluated at a dose 640 mg/kg.; format: functional
Mus musculus [19] = assay: Mean survival time against trophozoite induced Plasmodium berghei in mice minus control was evaluated at a dose 160 mg/kg; format: functional
Mus musculus [20] = assay: Mean survival time against trophozoite induced Plasmodium berghei in mice minus control was evaluated at a dose 640 mg/kg; 5 toxic death occurred out of 5 animals on days 2-5 after injection; format: functional, organism-based; parameters: dose 640 mg/kg
Mus musculus [21] = assay: Mean survival time against trophozoite induced Plasmodium berghei in mice minus control was evaluated at a dose 80 mg/kg; 4 toxic death occurred out of 10 animals on days 2-5 after injection.; format: functional, organism-based; parameters: dose 80 mg/kg
Mus musculus [22] = assay: Mean survival time against trophozoite induced Plasmodium berghei in mice minus control was evaluated at a dose 20 mg/kg;3 survived out of 15 animals at 60 days postinjection; format: functional, organism-based; parameters: dose 20 mg/kg
Mus musculus [23] = assay: Mean survival time against trophozoite induced Plasmodium berghei in mice minus control was evaluated at a dose 10 mg/kg; format: functional
Mus musculus [24] = assay: Mean survival time against trophozoite induced Plasmodium berghei in mice minus control was evaluated at a dose 320 mg/kg; 8 toxic death occurred out f 10 animals on days 2-5 after injection; format: functional, organism-based; parameters: dose 320 mg/kg
Mus musculus [25] = assay: Mean survival time against trophozoite induced Plasmodium berghei in mice minus control was evaluated at a dose 1.25 mg/kg; format: functional
Mus musculus [26] = assay: Mean survival time against trophozoite induced Plasmodium berghei in mice minus control was evaluated at a dose 160 mg/kg; 8 toxic death occurred out of 10 animals on days 2-5 after injection; format: functional, organism-based; parameters: dose 160 mg/kg
Mus musculus [27] = assay: Mean survival time against trophozoite induced Plasmodium berghei in mice minus control was evaluated at a dose 40 mg/kg; 11 survived out of 15 animals at 60 days postinjection; format: functional, organism-based; parameters: dose 40 mg/kg

**Q.** `CC1(C)N=C(N)N=C(N)N1c1ccc(Cl)cc1.Cl` [CHLORCYCLOGUANIL HYDROCHLORIDE] was tested. Which “Delta MST” value (Mus musculus [1]) did it give?
**A.** The value was “Toxic Deaths 5”.

**Q.** And the “Delta MST” value (Mus musculus [2])?
**A.** The value was “Survivals 2”.

**Q.** And the “Delta MST” value (Mus musculus [3])?
**A.** Its value is 21.6 days.

**Q.** And the “Delta MST” value (Mus musculus [4])?
**A.** The value was “Survivals 5”.

**Q.** And the “Delta MST” value (Mus musculus [5])?
**A.** The value was 4.9 days.

**Q.** What about the “Delta MST” value (Mus musculus [6]) of the same compound?
**A.** Its value is 13.4 days.

**Q.** And the “Delta MST” value (Mus musculus [7])?
**A.** Its value is 7.9 days.

**Q.** What about the “Delta MST” value (Mus musculus [8]) of the same compound?
**A.** The value was “Survivals 3 Toxic Deaths 2”.

**Q.** Which results are given for `CCCN(Cc1ccc(Cl)cc1)c1ccc2nc(N)nc(N)c2n1`?
**A.** Delta MST (Mus musculus [9]): 8.9 days; Delta MST (Mus musculus [10]): Toxic Deaths 15/15; Delta MST (Mus musculus [11]): Survivals 5/5; Delta MST (Mus musculus [5]): 10.3 days; Delta MST (Mus musculus [12]): Toxic Deaths 10/10; Delta MST (Mus musculus [13]): 21.3 days; Delta MST (Mus musculus [14]): 6.9 days; Delta MST (Mus musculus [15]): Toxic Deaths 14/20; Delta MST (Mus musculus [16]): 8.1 days; Delta MST (Mus musculus [17]): 18 days

**Q.** For `CN(Cc1ccc(Cl)cc1)c1ccc2nc(N)nc(N)c2n1`, which “Delta MST” value (Mus musculus [18]) is on record?
**A.** The value was 1.3 days.

**Q.** What about the “Delta MST” value (Mus musculus [19]) of the same compound?
**A.** The value was 1.1 days.

**Q.** What about the “Delta MST” value (Mus musculus [13]) of the same compound?
**A.** The value was 1.1 days.

**Q.** Which “Delta MST” value (Mus musculus [9]) does the source give for `CC#N.CC(C)N(Cc1ccc(Cl)cc1)c1ccc2nc(N)nc(N)c2n1` here?
**A.** The value was 8.5 days.

**Q.** What about the “Delta MST” value (Mus musculus [20]) of the same compound?
**A.** The value was “Toxic Deaths 5/5”.

**Q.** And the “Delta MST” value (Mus musculus [21])?
**A.** Its value is “Toxic Deaths 4/10”.

**Q.** And the “Delta MST” value (Mus musculus [22])?
**A.** Its value is “Survivals 3/15”.

**Q.** What about the “Delta MST” value (Mus musculus [23]) of the same compound?
**A.** The value was 11.5 days.

**Q.** And the “Delta MST” value (Mus musculus [24])?
**A.** Its value is “Toxic Deaths 8/10”.

**Q.** What about the “Delta MST” value (Mus musculus [25]) of the same compound?
**A.** Its value is 3.5 days.

**Q.** What about the “Delta MST” value (Mus musculus [26]) of the same compound?
**A.** The value was “Toxic Deaths 8/10”.

**Q.** And the “Delta MST” value (Mus musculus [16])?
**A.** Its value is 6.5 days.

**Q.** What about the “Delta MST” value (Mus musculus [27]) of the same compound?
**A.** The value was “Survivals 11/15”.
